# Data as given in PMC4010472, “Pharmacokinetics and Efficacy of Topically Applied Nonsteroidal Anti-Inflammatory Drugs in Retinochoroidal Tissues in Rabbits” (PLoS ONE, 2014).
# Entries after “also recorded” stand apart in the source; their conditions may differ. Read-outs that look alike come from different tables or passages of the source.
# How the values were obtained:
# [1] = target: human COX-1 (Homo sapiens, UniProt P23219); experiment: biochemical
# Method: The endogenous human COX-1 inhibitory activity was assayed by a published method with a slight modification, using venous blood of healthy volunteers with a written informed consent (obtained from Taipei Blood Center, Taipei, Taiwan). Test samples (0.3 to 1000 nM) and vehicle (1% dimethyl sulfoxide in the final assay) were pre-incubated with washed human platelets (5×10^7/mL) in modified buffer (Hanks' balanced salt solution with 15 mM HEPES, pH 7.4) for 15 minutes at 37°C. Arachidonic acid (100 µM, Cayman Chemical Co., Ann Arbor, MI) was added to initiate the reaction, and samples were incubated for an additional 15 minutes at 37°C. At the end of the incubation period, the reaction was terminated by the addition of 1 N HCl. Aliquots were then removed to determine the amount of PGE2 produced with the EIA kit. The amount of PGE2 was spectrophotometrically measured in the range of 50–6400 pg/mL at 450 nm according to the instructions of the kit using a competitive microtiter-based immunoassay method. Tests were performed with 7 concentrations of each drug to construct a dose-response curve and to determine the concentration causing a half-maximal inhibition (IC50) relative to the control values. Each series of concentrations was run in triplicate for each drug. […] The equation for a 4-parameter logistic fitting was, [drawing 1] […]
# [2] = target: T1, human COX-2 (Homo sapiens, UniProt P35354); experiment: COX-2 inhibitory activity, human recombinant COX-2, PGE2 EIA; assay type: biochemical; conditions: for IC50: human recombinant COX-2, 0.3 µM arachidonic acid, PGE2 EIA, read-out: IC50 COX-2, [95% Confidence interval]
# T1 construct: purchased Sigma-Aldrich; host or cells: baculovirus-infected Sf21 cells
# T1 sequence (P35354 18-604): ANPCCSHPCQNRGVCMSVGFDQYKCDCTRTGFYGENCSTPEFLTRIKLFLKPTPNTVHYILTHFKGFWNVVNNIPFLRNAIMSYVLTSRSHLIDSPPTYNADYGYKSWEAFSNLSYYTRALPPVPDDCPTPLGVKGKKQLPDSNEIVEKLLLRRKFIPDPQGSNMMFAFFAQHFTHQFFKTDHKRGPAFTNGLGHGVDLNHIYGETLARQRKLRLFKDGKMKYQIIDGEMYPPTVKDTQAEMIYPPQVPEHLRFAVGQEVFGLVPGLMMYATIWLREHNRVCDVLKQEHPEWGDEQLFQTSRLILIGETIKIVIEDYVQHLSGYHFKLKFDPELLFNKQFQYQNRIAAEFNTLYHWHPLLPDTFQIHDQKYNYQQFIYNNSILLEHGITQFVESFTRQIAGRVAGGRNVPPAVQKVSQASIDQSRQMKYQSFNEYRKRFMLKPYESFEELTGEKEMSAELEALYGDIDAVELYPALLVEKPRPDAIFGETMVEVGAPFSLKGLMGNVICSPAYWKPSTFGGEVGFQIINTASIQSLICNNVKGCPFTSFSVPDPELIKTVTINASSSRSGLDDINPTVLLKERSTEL
# Method: The endogenous human COX-1 inhibitory activity was assayed by a published method with a slight modification, using venous blood of healthy volunteers with a written informed consent (obtained from Taipei Blood Center, Taipei, Taiwan). Test samples (0.3 to 1000 nM) and vehicle (1% dimethyl sulfoxide in the final assay) were pre-incubated with washed human platelets (5×10^7/mL) in modified buffer (Hanks' balanced salt solution with 15 mM HEPES, pH 7.4) for 15 minutes at 37°C. Arachidonic acid (100 µM, Cayman Chemical Co., Ann Arbor, MI) was added to initiate the reaction, and samples were incubated for an additional 15 minutes at 37°C. At the end of the incubation period, the reaction was terminated by the addition of 1 N HCl. Aliquots were then removed to determine the amount of PGE2 produced with the EIA kit. The amount of PGE2 was spectrophotometrically measured in the range of 50–6400 pg/mL at 450 nm according to the instructions of the kit using a competitive microtiter-based immunoassay method. Tests were performed with 7 concentrations of each drug to construct a dose-response curve and to determine the concentration causing a half-maximal inhibition (IC50) relative to the control values. Each series of concentrations was run in triplicate for each drug. […] The equation for a 4-parameter logistic fitting was, [drawing 1]
# where a is the maximum value of the sigmoid curve; b is the Hill slope; c is (a + d)/2 (or IC50); and d is the lowest value of the sigmoid curve.
# Human recombinant COX-2 isolated from baculovirus-infected Sf21 cells (Sigma-Aldrich) was used for this assay. Test articles (0.1–1000 nM) and vehicle (1% dimethyl sulfoxide in the final assay) were pre-incubated with buffer (100 mM Tris-HCl, pH 7.7) containing 0.11 U COX-2, 1 mM glutathione, 1 µM hematin, and 0.5 mM phenol for 15 minutes at 37°C. Arachidonic acid (0.3 µM) was added to initiate the reaction, and samples were incubated for an additional 5 minutes at 37°C. At the end of the incubation period, the reaction was terminated by adding 1 N HCl. The amount of PGE2 produced was determined with the EIA kit, and the IC50 of each drug for COX-2 was obtained as described.
# [3] = Simulated repeated-dose pharmacokinetics in retinochoroidal tissue compared with IC50 of COX-2; parameters: species or system rabbit
# [4] = rabbit, in vivo
# [5] = repeated dosing simulated from single dose; diclofenac and amfenac (nepafenac) three/day at 8 hr interval, bromfenac two/day at 12 hr interval
# [6] = tested on: COX-1; conditions: cited from earlier work
# [7] = tested on: COX-2; conditions: cited from earlier work
# [8] = in vivo; conditions: Kbl:JW, rabbit, topical or ocular
# [9] = in vivo; conditions: Kbl:JW, rabbit, topical or ocular; remark: listed apart in the source
# [10] = cited from earlier work
# [11] = 21 day-once daily instillation of 0.1% 14C-bromfenac; 7.2 ng/mL × 80.5% ref 35; cited from earlier work
# [12] = tested on: retinal PGE2; conditions: topical, lipopolysaccharide-injected rats ref 41; cited from earlier work
# [13] = tested on: laser-induced choroidal neovascularization; parameters: method as in PMID 21709668; conditions: topical, rats ref 17; cited from earlier work
# [14] = humans, adjunctive use of topical bromfenac ref 18; cited from earlier work
# [15] = Ocular distribution after single topical instillation: retinochoroidal tissue (LC-MS/MS, non-compartmental PK); conditions: Kbl:JW, rabbit, in vivo, topical or ocular, 30 µL of 0.1% eye drops
# [16] = tested on: concanavalin A-induced retinochoroidal inflammation; experiment: Concanavalin A-induced intraocular inflammation, vitreous protein concentration (blood-retinal barrier breakdown); conditions: rabbit, 72 hours after intravitreal Con A; 50 µL of 0.1% eye drops 3 times/day for 4 days, or indomethacin 20 mg/kg s.c. once a day; vs saline, Dunnett's test
# [17] = tested on: Con A-induced intraocular inflammation; parameters: method as in PMID 14635785; conditions: 0.5% nepafenac eye drops, 5 times/day regimen ref 22; cited from earlier work
# [18] = tested on: retinal vascular leakage; conditions: topical, lipopolysaccharide-injected rats ref 41; cited from earlier work
# [19] = sheep-derived enzymes or combination of sheep and recombinant human enzymes ref 23
# [20] = sheep-derived enzymes or combination of sheep and recombinant human enzymes ref 24
# Sequence of human COX-1 (P23219 24-599): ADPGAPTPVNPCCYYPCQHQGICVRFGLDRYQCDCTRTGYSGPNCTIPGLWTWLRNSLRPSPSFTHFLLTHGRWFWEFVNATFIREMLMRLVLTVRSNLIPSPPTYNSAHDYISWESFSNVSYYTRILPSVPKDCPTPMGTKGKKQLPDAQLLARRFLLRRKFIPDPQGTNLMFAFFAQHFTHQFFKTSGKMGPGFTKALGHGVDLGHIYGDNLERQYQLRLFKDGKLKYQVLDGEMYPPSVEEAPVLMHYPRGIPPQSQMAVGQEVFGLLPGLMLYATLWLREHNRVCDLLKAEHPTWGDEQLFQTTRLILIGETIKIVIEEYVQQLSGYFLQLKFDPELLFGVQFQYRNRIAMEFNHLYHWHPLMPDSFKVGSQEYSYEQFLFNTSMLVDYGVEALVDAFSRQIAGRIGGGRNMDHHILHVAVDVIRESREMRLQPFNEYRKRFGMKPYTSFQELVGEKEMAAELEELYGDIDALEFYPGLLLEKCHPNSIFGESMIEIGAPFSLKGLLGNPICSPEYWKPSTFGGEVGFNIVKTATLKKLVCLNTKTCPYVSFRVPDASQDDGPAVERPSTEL
Compound,IC50 [2],AUC0–8 [4],"IC50 [6, 19]","IC50 [7, 19]",AUC(0-t) ([8]; in vivo),Cmax ([8]; in vivo),Cmax [9],retinal PGE2 levels [12],protein concentration in the vitreous body [16],further results
"Nc1c(CC(=O)O)cccc1C(=O)c1ccccc1 [Amfenac, amfenac]",0.0204 µM,41.9 ± 3.4 ng·h/g,0.138 µM,0.00177 µM,131 ± 11 ng·h/mL,25.9 ± 7.4 ng/mL,12.5 ± 7.2 ng/g,–,–,"IC50 [1]: 0.0153 µM; Ratio of IC50: IC50 for COX-2/IC50 for COX-1 ([2]; human COX-2 to COX-1): 1.3; simulated concentration in retinochoroidal tissue relative to IC50 of COX-2 ([3]; repeated dosing simulated from single dose, diclofenac and amfenac (nepafenac) three/day at 8 hr interval, bromfenac two/day at 12 hr interval): lower than the corresponding IC50 values at the troughs; also recorded: less than the IC50 of COX-2 at the trough level; simulated concentration in aqueous humor relative to IC50 of COX-2 [5]: almost always higher than the IC50 of COX-2 although it was slightly less than the IC50 at the trough level; IC50 [6, 20]: 0.25 µM; IC50 [7, 20]: 0.15 µM"
"Nc1c(CC(=O)O)cccc1C(=O)c1ccc(Br)cc1 [Bromfenac, 2-amino-3-(4-bromobenzoyl) phenylacetic acid]",0.00745 µM,[…],[…],[…],[…],57.8 ± 36.1 ng/mL,15.8 ± 7.2 ng/g,[…],[…],"inhibitory activity on COX-2, times more potent than amfenac ([2]; bromfenac vs amfenac): […]; inhibitory activity on COX-2, times more potent than diclofenac ([2]; bromfenac vs diclofenac): […]; simulated concentration in retinochoroidal tissues at 8 hours after the last instillation ([3]; simulation model, 21 day-once daily instillation (data not shown)): […]; hydrophobicity (Log P) ([10]; ref 27): […]; hydrophobicity (Log P) ([10]; ref 33): 3.22; concentration of bromfenac in retinochoroidal tissues at 8 hours after the last instillation [11]: […]; laser-induced choroidal neovascularization [13]: inhibited; frequency of intravitreous ranibizumab [14]: could reduce; half-life ([8]; in vivo, 30 µL of 0.1% eye drops): […]; half-life [15]: 4.69 h"
"O=C(O)Cc1ccccc1Nc1c(Cl)cccc1Cl [Diclofenac, diclofenac]",–,119 ± 27 ng·h/g,–,–,972 ± 44 ng·h/mL,300 ± 110 ng/mL,38.2 ± 18.1 ng/g,–,decrease was not significant,hydrophobicity (Log P) ([10]; ref 32): 4.31; half-life ([8]; in vivo): 1.94 h; k el ([8]; in vivo): 9.94e-05 s⁻¹; half-life [9]: 1.89 h; k el [9]: 0.000102 s⁻¹
"NC(=O)Cc1cccc(C(=O)c2ccccc2)c1N [Nepafenac, nepafenac]",–,–,–,–,–,–,–,significantly reduced,decrease was not significant,"inhibition of the breakdown of the blood-retinal barrier [17]: significantly inhibit; Tmax ([8]; aqueous humor, 30 µL of 0.1% eye drops): 0.5 h"
COc1ccc2c(c1)c(CC(=O)O)c(C)n2C(=O)c1ccc(Cl)cc1 [indomethacin],–,–,–,–,–,–,–,significantly reduced,significantly reduced,retinal vascular leakage [18]: able to prevent
